Tested on: 653999-131-R-J2-PDC complex spheroid viability
Experiment: Anticancer human tumor 653999-131-R-J2-PDC patient-derived lung adenocarcinoma cell line growth inhibition
Details: for IC50: curve of first compound; for viability, T/C: stronger effect = lower value
Summary of the method: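 Drug combinations with the LSD1 inhibitor iadademstat tested on tumor cells co-cultured as spheroids with endothelial cells and mesenchymal stem cells. Concentrations descended in half-log increments from clinical Cmax or 10 microM.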

[1] = second compound 0.1 µM, first compound 0.0316 µM
[2] = second compound 0.1 µM, first compound 0.1 µM
[3] = second compound 0.1 µM, first compound 0.316 µM
[4] = second compound 0.1 µM, first compound 1 µM
[5] = second compound 0.1 µM, first compound 3.16 µM
[6] = second compound 0.1 µM, first compound 10 µM
[7] = second compound 0.316 µM, first compound 0.0316 µM
[8] = second compound 0.316 µM, first compound 0.1 µM
[9] = second compound 0.316 µM, first compound 0.316 µM
[10] = second compound 0.316 µM, first compound 1 µM
[11] = second compound 0.316 µM, first compound 3.16 µM
[12] = second compound 0.316 µM, first compound 10 µM
[13] = second compound 1 µM, first compound 0.0316 µM
[14] = second compound 1 µM, first compound 0.1 µM
[15] = second compound 1 µM, first compound 0.316 µM
[16] = second compound 1 µM, first compound 1 µM
[17] = second compound 1 µM, first compound 3.16 µM
[18] = second compound 1 µM, first compound 10 µM
[19] = second compound 3.16 µM, first compound 0.0316 µM
[20] = second compound 3.16 µM, first compound 0.1 µM
[21] = second compound 3.16 µM, first compound 0.316 µM
[22] = second compound 3.16 µM, first compound 1 µM
[23] = second compound 3.16 µM, first compound 3.16 µM
[24] = second compound 3.16 µM, first compound 10 µM
[25] = second compound 10 µM, first compound 0.0316 µM
[26] = second compound 10 µM, first compound 0.1 µM
[27] = second compound 10 µM, first compound 0.316 µM
[28] = second compound 10 µM, first compound 1 µM
[29] = second compound 10 µM, first compound 3.16 µM
[30] = second compound 10 µM, first compound 10 µM
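Further: spheroids exposed to agents for seven days before readout.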

Row | SMILES | IC50 (second compound 0.1 µM) [µM] | IC50 (second compound 0.316 µM) [µM] | IC50 (second compound 1 µM) [µM] | IC50 (second compound 3.16 µM) [µM] | IC50 (second compound 10 µM) [µM] | viability, T/C [1] [%] | viability, T/C [2] [%] | viability, T/C [3] [%] | viability, T/C [4] [%] | viability, T/C [5] [%] | viability, T/C [6] [%] | viability, T/C [7] [%] | viability, T/C [8] [%] | viability, T/C [9] [%] | viability, T/C [10] [%] | viability, T/C [11] [%] | viability, T/C [12] [%] | viability, T/C [13] [%] | viability, T/C [14] [%] | viability, T/C [15] [%] | further results
1 | CC1(C)CCC(CN2CCN(c3ccc(C(=O)NS(=O)(=O)c4ccc(NCC5CCOCC5)c([N+](=O)[O-])c4)c(Oc4cnc5[nH]ccc5c4)c3)CC2)=C(c2ccc(Cl)cc2)C1 + NC1CC1c1ccc(-c2cccc(O)c2)cc1 | 5.74 | 4.87 | 5.19 | 5.26 | 4.53 | 117 | 118 | 107 | 102 | 81.5 | 21.6 | 103 | 112 | 101 | 99.3 | 65.7 | 23.6 | 103 | 101 | 107 | viability, T/C [16]: 107%; viability, T/C [17]: 72.6%; viability, T/C [18]: 20.2%; viability, T/C [19]: 89.9%; viability, T/C [20]: 84.2%; viability, T/C [21]: 105%; viability, T/C [22]: 86.8%; viability, T/C [23]: 76.5%; viability, T/C [24]: 16.8%; viability, T/C [25]: 85.3%; viability, T/C [26]: 102%; viability, T/C [27]: 89.4%; viability, T/C [28]: 95.8%; viability, T/C [29]: 68.8%; viability, T/C [30]: 8.78%
2 | CC1COCCN1c1cc(C2(S(C)(=N)=O)CC2)nc(-c2ccnc3[nH]ccc23)n1 (stereo not given) + NC1CC1c1ccc(-c2cccc(O)c2)cc1 | > 10 | 2.11 | 1.58 | 2.65 | 2.26 | 99.7 | 100 | 102 | 77.7 | 47.9 | 51.7 | 104 | 95.3 | 92.5 | 62.7 | 42.5 | 40.2 | 83.1 | 98.6 | 83.7 | viability, T/C [16]: 57.2%; viability, T/C [17]: 39.8%; viability, T/C [18]: 36.7%; viability, T/C [19]: 90.2%; viability, T/C [20]: 108%; viability, T/C [21]: 94.5%; viability, T/C [22]: 73.2%; viability, T/C [23]: 43.9%; viability, T/C [24]: 47.1%; viability, T/C [25]: 77.2%; viability, T/C [26]: 93%; viability, T/C [27]: 82.3%; viability, T/C [28]: 64%; viability, T/C [29]: 41.1%; viability, T/C [30]: 47.3%

From PubChem BioAssay AID1918939 (Molecular Pharmacology Branch, DTP, NCI, 2023)
